What was measured:
Melanocortin receptor 4 [1] = biological target: T1, Melanocortin receptor 4 (Homo sapiens, UniProt P32245); experiment: Maximum percentage of cAMP accumulation relative to alpha-MSH at human melanocortin 4 receptor at 10 uM; assay type: functional
Melanocortin receptor 4 [2] = biological target: T1, Melanocortin receptor 4; experiment: Maximum percentage of cAMP accumulation compared to alpha-MSH at human melanocortin 4 receptor at 10 uM; assay type: functional
Melanocortin receptor 4 [3] = biological target: T1, Melanocortin receptor 4; experiment: Inhibition of [125I]-NDP- alpha-MSH binding to human melanocortin 4 receptor expressed in CHO cells; assay type: cell-based
Melanocortin receptor 4 [4] = biological target: T1, Melanocortin receptor 4; experiment: Effective concentration at human melanocortin 4 receptor in cAMP release assay; assay type: functional

T1 sequence (P32245 whole entry): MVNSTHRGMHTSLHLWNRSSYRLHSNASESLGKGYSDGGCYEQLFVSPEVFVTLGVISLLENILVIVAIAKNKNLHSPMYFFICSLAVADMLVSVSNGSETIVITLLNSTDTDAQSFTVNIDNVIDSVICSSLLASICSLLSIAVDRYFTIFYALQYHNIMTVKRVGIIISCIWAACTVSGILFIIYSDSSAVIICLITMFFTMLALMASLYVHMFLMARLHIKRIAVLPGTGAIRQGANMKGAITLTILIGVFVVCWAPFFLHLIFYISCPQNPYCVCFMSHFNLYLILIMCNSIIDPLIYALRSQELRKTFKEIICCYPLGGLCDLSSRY

Row | Compound | Max (Melanocortin receptor 4 [1]) [%] | Max (Melanocortin receptor 4 [2]) [%] | IC50 (Melanocortin receptor 4 [3]) [nM] | EC50 (Melanocortin receptor 4 [4]) [nM]
1 | COc1ccc(N2N=C(Sc3ccc(Cl)cc3)CC(CC[C@@H](C)NC(=O)[C@@H]3CNCC[C@H]3c3ccc(F)cc3)C2=O)cc1 (stereo in doubt; 61) [listing 1 of 2 here] | 32 |  |  | 
2 | COc1ccc(-n2nc(Sc3ccc(Cl)cc3)cc(CC[C@@H](C)NC(=O)[C@H]3CNCC[C@@H]3c3ccc4ccccc4c3)c2=O)cc1 |  | 12 | 17 | 
3 | COc1ccc(-n2nc(Sc3ccc(Cl)cc3)cc(CC[C@@H](C)NC(=O)[C@H]3CNC[C@@H]3c3ccc(F)cc3F)c2=O)cc1 | 81 |  | 60 | 200
4 | COc1ccc(N2N=C(Sc3ccc(Cl)cc3)CC(CC[C@@H](C)NC(=O)C3CNC[C@H]3c3ccc(F)cc3)C2=O)cc1 (single isomer, unassigned; 68) [listing 1 of 2 here] | 26 |  |  | 
5 | COc1ccc(-n2nc(Sc3ccc(Cl)cc3)cc(CC[C@@H](C)NC(=O)[C@H]3CNCC[C@@H]3c3cccc(C(F)(F)F)c3)c2=O)cc1 |  | 40 | 100 | 
6 | COc1ccc(-n2nc(Sc3ccc(Cl)cc3)cc(CC[C@@H](C)NC(=O)[C@H]3CNCC[C@@H]3c3ccccc3)c2=O)cc1 | 77 |  |  | 
7 | COc1ccc(N2N=C(Sc3ccc(Cl)cc3)CC(CC[C@@H](C)NC(=O)[C@@H]3CCNC[C@H]3c3ccc(F)cc3)C2=O)cc1 (stereo in doubt; 64) [listing 1 of 2 here] |  |  | 1300 | 2000
8 | COc1ccc(N2N=C(Sc3ccc(Cl)cc3)CC(CC[C@@H](C)NC(=O)[C@@H]3CCNC[C@H]3c3ccc(F)cc3)C2=O)cc1 (stereo in doubt; 65) [listing 1 of 2 here] | 33 |  |  | 
9 | COc1ccc(-n2nc(Sc3ccc(Cl)cc3)cc(CC[C@@H](C)NC(=O)[C@H]3CNCC[C@@H]3c3ccccc3F)c2=O)cc1 | 58 |  | 13 | 550
10 | COc1ccc(-n2nc(Sc3ccc(Cl)cc3)cc(CC[C@@H](C)NC(=O)[C@H]3CNC[C@@H]3c3ccccc3F)c2=O)cc1 | 82 |  | 160 | 710
11 | COc1ccc(N2N=C(Sc3ccc(Cl)cc3)CC(CC[C@@H](C)NC(=O)[C@H]3CNCC[C@@H]3c3ccc(F)cc3)C2=O)cc1 (stereo in doubt; 25) [listing 1 of 2 here] | 72 |  |  | 
12 | COc1ccc(N2N=C(Sc3ccc(Cl)cc3)CC(CC[C@@H](C)NC(=O)[C@@H]3CNCC[C@H]3c3ccc(F)cc3)C2=O)cc1 (stereo in doubt; 60) [listing 1 of 2 here] |  |  | 560 | 
13 | COc1ccc(N2N=C(Sc3ccc(Cl)cc3)CC(CC[C@@H](C)NC(=O)[C@@H]3CCNC[C@H]3c3ccc(F)cc3)C2=O)cc1 (stereo in doubt; 65) [listing 2 of 2 here] |  |  | 280 | 1400
14 | COc1ccc([C@H]2CNC[C@@H]2C(=O)N[C@H](C)CCc2cc(Sc3ccc(Cl)cc3)nn(-c3ccc(OC)cc3)c2=O)cc1 | 67 |  | 19 | 430
15 | COc1ccc(N2N=C(Sc3ccc(Cl)cc3)CC(CC[C@@H](C)NC(=O)C3CNC[C@H]3c3ccc(F)cc3)C2=O)cc1 (single isomer, unassigned; 69) [listing 1 of 2 here] | 48 |  |  | 
16 | COc1ccc(-n2nc(Sc3ccc(Cl)cc3)cc(CC[C@@H](C)NC(=O)[C@@H]3CNCCN3c3ccc(F)cc3)c2=O)cc1 | 75 |  | 28 | 1100
17 | COc1ccc(-n2nc(Sc3ccc(Cl)cc3)cc(CC[C@@H](C)NC(=O)[C@H]3CN(C)CC[C@@H]3c3ccc(F)cc3)c2=O)cc1 | 59 |  | 4.7 | 320
18 | COc1ccc(-n2nc(Sc3ccc(Cl)cc3)cc(CC[C@@H](C)NC(=O)[C@H]3CNCC[C@@H]3c3cccc(Cl)c3)c2=O)cc1 | 37 |  | 43 | 680
19 | COc1ccc(-n2nc(Sc3ccc(Cl)cc3)cc(CC[C@@H](C)NC(=O)[C@H]3CNCC[C@@H]3c3ccc(Cl)cc3Cl)c2=O)cc1 |  | 2 | 3.2 | 
20 | COc1ccc(-n2nc(Sc3ccc(Cl)cc3)cc(CC[C@@H](C)NC[C@H]3CNCC[C@@H]3c3ccc(F)cc3)c2=O)cc1 | 60 |  | 28 | 470
21 | COc1ccc(N2N=C(Sc3ccc(Cl)cc3)CC(CC[C@@H](C)NC(=O)[C@@H]3CNCC[C@H]3c3ccc(F)cc3)C2=O)cc1 (stereo in doubt; 61) [listing 2 of 2 here] |  |  | 690 | 4000
22 | COc1ccc(-n2nc(Sc3ccc(Cl)cc3)cc(CC[C@@H](C)NC[C@@H]3CNCC[C@H]3c3ccc(F)cc3)c2=O)cc1 |  | 9 | 290 | 
23 | COc1ccc(-n2nc(Sc3ccc(Cl)cc3)cc(CC[C@@H](C)NC(=O)[C@H]3CNCCN3c3ccc(F)cc3)c2=O)cc1 |  | 6 | 950 | 

Row | Compound | Max (Melanocortin receptor 4 [1]) [%] | Max (Melanocortin receptor 4 [2]) [%] | IC50 (Melanocortin receptor 4 [3]) [nM] | EC50 (Melanocortin receptor 4 [4]) [nM]
24 | COc1ccc(N2N=C(Sc3ccc(Cl)cc3)CC(CC[C@@H](C)NC(=O)[C@H]3CCNC[C@@H]3c3ccc(F)cc3)C2=O)cc1 (stereo in doubt; 62) [listing 1 of 2 here] |  |  | 540 | 480
25 | COc1ccc(N2N=C(Sc3ccc(Cl)cc3)CC(CC[C@@H](C)NC(=O)[C@H]3CNCC[C@@H]3c3ccc(F)cc3)C2=O)cc1 (stereo in doubt; 25) [listing 2 of 2 here] |  |  | 26 | 390
26 | COc1ccc(-n2nc(Sc3ccc(Cl)cc3)cc(CC[C@@H](C)NC(=O)[C@H]3CCNC[C@@H]3c3ccc(Cl)cc3Cl)c2=O)cc1 | 30 |  | 36 | 2400
27 | COc1ccc(N2N=C(Sc3ccc(Cl)cc3)CC(CC[C@@H](C)NC(=O)C3CNC[C@@H]3c3ccc(F)cc3)C2=O)cc1 (single isomer, unassigned; 66) [listing 1 of 2 here] | 90 |  |  | 
28 | COc1ccc(-n2nc(Sc3ccc(Cl)cc3)cc(CC[C@@H](C)NC(=O)[C@H]3CNC[C@@H]3c3ccccc3)c2=O)cc1 | 103 |  | 98 | 400
29 | COc1ccc(N2N=C(Sc3ccc(Cl)cc3)CC(CC[C@@H](C)NC(=O)C3CNC[C@H]3c3ccc(F)cc3)C2=O)cc1 (single isomer, unassigned; 68) [listing 2 of 2 here] |  |  | 780 | 4000
30 | COc1ccc(-n2nc(Sc3ccc(Cl)cc3)cc(CC[C@@H](C)NC(=O)[C@H]3CNCC[C@@H]3c3cccc4ccccc34)c2=O)cc1 |  | 22 | 89 | 
31 | COc1ccc(N2N=C(Sc3ccc(Cl)cc3)CC(CC[C@@H](C)NC(=O)[C@@H]3CNCC[C@H]3c3ccc(F)cc3)C2=O)cc1 (stereo in doubt; 60) [listing 2 of 2 here] |  | 20 |  | 
32 | COc1ccc(-n2nc(Sc3ccc(Cl)cc3)cc(CC[C@H](C)NC(=O)[C@H]3CNCCN3c3ccc(F)cc3)c2=O)cc1 |  | 9 | 1100 | 
33 | COc1ccc(N2N=C(Sc3ccc(Cl)cc3)CC(CC[C@@H](C)NC(=O)C3CNC[C@@H]3c3ccc(F)cc3)C2=O)cc1 (single isomer, unassigned; 66) [listing 2 of 2 here] |  |  | 47 | 1200
34 | COc1ccc(-n2nc(Sc3ccc(Cl)cc3)cc(CC[C@@H](C)NC(=O)[C@H]3CNC[C@@H]3c3ccc(C)cc3)c2=O)cc1 | 67 |  | 28 | 750
35 | COc1ccc(-n2nc(Sc3ccc(Cl)cc3)cc(CC[C@@H](C)N(C)C(=O)C3CNCCC3c3ccc(F)cc3)c2=O)cc1 (stereo partly specified) | 94 |  | 93 | 410
36 | COc1ccc(N2N=C(Sc3ccc(Cl)cc3)CC(CC[C@@H](C)NC(=O)[C@@H]3CCNC[C@H]3c3ccc(F)cc3)C2=O)cc1 (stereo in doubt; 64) [listing 2 of 2 here] | 16 |  |  | 
37 | COc1ccc(-n2nc(Sc3ccc(Cl)cc3)cc(CC[C@@H](C)NC(=O)[C@H]3CNC[C@@H]3c3ccc(Cl)cc3)c2=O)cc1 | 70 |  | 45 | 230
38 | COc1ccc(-n2nc(Sc3ccc(Cl)cc3)cc(CC[C@@H](C)NC(=O)[C@H]3CCNC[C@@H]3c3ccc(C(F)(F)F)cc3)c2=O)cc1 | 75 |  | 200 | 710
39 | COc1ccc(-n2nc(Sc3ccc(Cl)cc3)cc(CC[C@@H](C)NC(=O)[C@H]3CNCC[C@@H]3c3ccc(Cl)cc3)c2=O)cc1 | 39 |  | 2.4 | 210
40 | COc1ccc(N2N=C(Sc3ccc(Cl)cc3)CC(CC[C@@H](C)NC(=O)C3CNC[C@H]3c3ccc(F)cc3)C2=O)cc1 (single isomer, unassigned; 69) [listing 2 of 2 here] |  |  | 430 | 740
41 | COc1ccc(-n2nc(Sc3ccc(Cl)cc3)cc(CC[C@@H](C)NC(=O)[C@H]3CCNC[C@@H]3c3ccccc3)c2=O)cc1 | 85 |  |  | 
42 | COc1ccc(N2N=C(Sc3ccc(Cl)cc3)CC(CC[C@@H](C)NC(=O)[C@H]3CCNC[C@@H]3c3ccc(F)cc3)C2=O)cc1 (stereo in doubt; 62) [listing 2 of 2 here] | 100 |  |  | 
43 | COc1ccc(-n2nc(Sc3ccc(Cl)cc3)cc(CC[C@@H](C)NC(=O)[C@H]3CCNC[C@@H]3c3ccc(Cl)cc3)c2=O)cc1 | 101 |  | 58 | 150
44 | COc1ccc(-n2nc(Sc3ccc(Cl)cc3)cc(CC[C@@H](C)NC(=O)[C@H]3CCNC[C@@H]3c3ccccc3F)c2=O)cc1 | 75 |  | 100 | 550
45 | COc1ccc(-n2nc(Sc3ccc(Cl)cc3)cc(CC[C@@H](C)NC(=O)[C@H]3CCNC[C@@H]3c3ccc(C#N)cc3)c2=O)cc1 | 81 |  | 45 | 120

From ChEMBL document CHEMBL1142811, “Design and syntheses of melanocortin subtype-4 receptor agonists. Part 2: discovery of the dihydropyridazinone motif” (Bioorg Med Chem Lett, 2005)
